In PubChem BioAssay (NCI):
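Dose response: 5 concentrations. Exposure: 48 h. Format: 96-well plates. Endpoint: linear interpolation; highest concentration if not reached. Definition used: TGI = concentration required for complete inhibition of growth.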

Experiments:
Test in all cases: NCI tumour cell line growth inhibition, 48 h
A549 NSCLC = system: A549 NSCLC
COLO 205 colon = system: COLO 205 colon
NCI-H226 lung = system: NCI-H226 lung
SK-MEL-2 melanoma = system: SK-MEL-2 melanoma
HCC-2998 colon = system: HCC-2998 colon
786-0 renal = system: 786-0 renal
CCRF-CEM leukemia = system: CCRF-CEM leukemia
M14 melanoma = system: M14 melanoma
LOX IMVI melanoma = system: LOX IMVI melanoma
SN12C renal = system: SN12C renal
CAKI-1 renal = system: CAKI-1 renal
NCI-H460 lung = system: NCI-H460 lung
ACHN renal = system: ACHN renal
HOP-92 NSCLC = system: HOP-92 NSCLC
MDA-MB-231 breast = system: MDA-MB-231 breast
HL-60(TB) leukemia = system: HL-60(TB) leukemia
IGROV1 ovarian = system: IGROV1 ovarian
NCI-H23 lung = system: NCI-H23 lung
SNB-19 CNS = system: SNB-19 CNS
DU-145 prostate = system: DU-145 prostate
T-47D breast = system: T-47D breast
MCF7 breast = system: MCF7 breast
SNB-75 CNS = system: SNB-75 CNS
HOP-62 NSCLC = system: HOP-62 NSCLC
SF-539 CNS = system: SF-539 CNS
TK-10 renal = system: TK-10 renal
OVCAR-5 ovarian = system: OVCAR-5 ovarian
HS 578T breast = system: HS 578T breast
HT29 colon = system: HT29 colon
PC-3 prostate = system: PC-3 prostate
RXF 393 renal = system: RXF 393 renal
A498 renal = system: A498 renal
BT-549 breast = system: BT-549 breast
NCI/ADR-RES ovarian = system: NCI/ADR-RES ovarian
EKVX NSCLC = system: EKVX NSCLC
OVCAR-8 ovarian = system: OVCAR-8 ovarian
SR leukemia = system: SR leukemia
NCI-H522 lung = system: NCI-H522 lung
OVCAR-3 ovarian = system: OVCAR-3 ovarian
U251 CNS = system: U251 CNS
UO-31 renal = system: UO-31 renal
MDA-MB-435 = system: MDA-MB-435
SK-MEL-28 melanoma = system: SK-MEL-28 melanoma
SF-295 CNS = system: SF-295 CNS
MDA-N = system: MDA-N
MOLT-4 leukemia = system: MOLT-4 leukemia
UACC-62 melanoma = system: UACC-62 melanoma
MALME-3M melanoma = system: MALME-3M melanoma
UACC-257 melanoma = system: UACC-257 melanoma
SF-268 CNS = system: SF-268 CNS
HCT-116 colon = system: HCT-116 colon
K-562 leukemia = system: K-562 leukemia
KM12 colon = system: KM12 colon
SW-620 colon = system: SW-620 colon
OVCAR-4 ovarian = system: OVCAR-4 ovarian
HCT-15 colon = system: HCT-15 colon
SK-MEL-5 melanoma = system: SK-MEL-5 melanoma
RPMI-8226 leukemia = system: RPMI-8226 leukemia
SK-OV-3 ovarian = system: SK-OV-3 ovarian

CNC(=O)Nc1ccccc1
TGI (A549 NSCLC): > 100 µM
TGI (COLO 205 colon): > 100 µM
TGI (NCI-H226 lung): > 100 µM
TGI (SK-MEL-2 melanoma): > 100 µM
TGI (HCC-2998 colon): > 100 µM
TGI (786-0 renal): > 100 µM
TGI (CCRF-CEM leukemia): > 100 µM
TGI (M14 melanoma): > 100 µM
TGI (LOX IMVI melanoma): > 100 µM
TGI (SN12C renal): > 100 µM
TGI (CAKI-1 renal): > 100 µM
TGI (NCI-H460 lung): > 100 µM
TGI (ACHN renal): > 100 µM
TGI (HOP-92 NSCLC): > 100 µM
TGI (MDA-MB-231 breast): > 100 µM
TGI (HL-60(TB) leukemia): > 100 µM
TGI (IGROV1 ovarian): > 100 µM
TGI (NCI-H23 lung): > 100 µM
TGI (SNB-19 CNS): > 100 µM
TGI (DU-145 prostate): > 100 µM
TGI (T-47D breast): > 100 µM
TGI (MCF7 breast): > 100 µM
TGI (SNB-75 CNS): > 100 µM
TGI (HOP-62 NSCLC): > 100 µM
TGI (SF-539 CNS): > 100 µM
TGI (TK-10 renal): > 100 µM
TGI (OVCAR-5 ovarian): > 100 µM
TGI (HS 578T breast): > 100 µM
TGI (HT29 colon): > 100 µM
TGI (PC-3 prostate): > 100 µM
TGI (RXF 393 renal): > 100 µM
TGI (A498 renal): > 100 µM
TGI (BT-549 breast): > 100 µM
TGI (NCI/ADR-RES ovarian): > 100 µM
TGI (EKVX NSCLC): > 100 µM
TGI (OVCAR-8 ovarian): > 100 µM
TGI (SR leukemia): > 100 µM
TGI (NCI-H522 lung): > 100 µM
TGI (OVCAR-3 ovarian): > 100 µM
TGI (U251 CNS): > 100 µM
TGI (UO-31 renal): > 100 µM
TGI (MDA-MB-435): > 100 µM
TGI (SK-MEL-28 melanoma): > 100 µM
TGI (SF-295 CNS): > 100 µM
TGI (MDA-N): > 100 µM
TGI (MOLT-4 leukemia): > 100 µM
TGI (UACC-62 melanoma): > 100 µM
TGI (MALME-3M melanoma): > 100 µM
TGI (UACC-257 melanoma): > 100 µM
TGI (SF-268 CNS): > 100 µM
TGI (HCT-116 colon): > 100 µM
TGI (K-562 leukemia): > 100 µM
TGI (KM12 colon): > 100 µM
TGI (SW-620 colon): > 100 µM
TGI (OVCAR-4 ovarian): > 100 µM
TGI (HCT-15 colon): > 100 µM
TGI (SK-MEL-5 melanoma): > 100 µM
TGI (RPMI-8226 leukemia): > 100 µM

O=c1c(=[n+]2ccc(=C([O-])c3ccccc3)cc2)/c(=N/S(=O)(=O)c2ccccc2)c(=O)c2ccccc12
TGI (A549 NSCLC): 29.8 µM
TGI (COLO 205 colon): 27.2 µM
TGI (NCI-H226 lung): 30.8 µM
TGI (SK-MEL-2 melanoma): 8.63 µM
TGI (HCC-2998 colon): 23.7 µM
TGI (786-0 renal): 19.5 µM
TGI (CCRF-CEM leukemia): 6.11 µM
TGI (M14 melanoma): 23.9 µM
TGI (LOX IMVI melanoma): 9.45 µM
TGI (SN12C renal): 19 µM
TGI (CAKI-1 renal): 5.19 µM
TGI (NCI-H460 lung): 36.2 µM
TGI (ACHN renal): 25.3 µM
TGI (HOP-92 NSCLC): 21.1 µM
TGI (MDA-MB-231 breast): 26.1 µM
TGI (HL-60(TB) leukemia): 4.95 µM
TGI (IGROV1 ovarian): 23 µM
TGI (NCI-H23 lung): 12 µM
TGI (SNB-19 CNS): 26.7 µM
TGI (DU-145 prostate): 26.8 µM
TGI (T-47D breast): 12.9 µM
TGI (MCF7 breast): 25.7 µM
TGI (SNB-75 CNS): 27.7 µM
TGI (HOP-62 NSCLC): 22.7 µM
TGI (SF-539 CNS): 25.9 µM
TGI (TK-10 renal): 32.2 µM
TGI (OVCAR-5 ovarian): 33.7 µM
TGI (HS 578T breast): 18.7 µM
TGI (HT29 colon): 28 µM
TGI (PC-3 prostate): 23.6 µM
TGI (RXF 393 renal): 25.2 µM
TGI (A498 renal): 32 µM
TGI (BT-549 breast): 18 µM
TGI (NCI/ADR-RES ovarian): 24.3 µM
TGI (EKVX NSCLC): 27 µM
TGI (OVCAR-8 ovarian): 26.7 µM
TGI (SR leukemia): 13.4 µM
TGI (NCI-H522 lung): 18.3 µM
TGI (OVCAR-3 ovarian): 13.6 µM
TGI (U251 CNS): 16.1 µM
TGI (UO-31 renal): 23.9 µM
TGI (MDA-MB-435): 3.1 µM
TGI (SK-MEL-28 melanoma): 8.8 µM
TGI (SF-295 CNS): 24.3 µM
TGI (MDA-N): 3.27 µM
TGI (MOLT-4 leukemia): 14.8 µM
TGI (UACC-62 melanoma): 3.73 µM
TGI (MALME-3M melanoma): 16.9 µM
TGI (UACC-257 melanoma): 23.9 µM
TGI (SF-268 CNS): 25.7 µM
TGI (HCT-116 colon): 23.5 µM
TGI (K-562 leukemia): 9.98 µM
TGI (KM12 colon): 28.3 µM
TGI (SW-620 colon): 22 µM
TGI (OVCAR-4 ovarian): 25.9 µM
TGI (HCT-15 colon): 28.2 µM
TGI (SK-MEL-5 melanoma): 4.87 µM
TGI (RPMI-8226 leukemia): 18.9 µM
TGI (SK-OV-3 ovarian): 29.2 µM
